Test results reported in US11123337B2, “4-methylsulfonyl-substituted piperidine urea compounds” (MYOKARDIA, INC., priority 2015, dated 2021).

Molecular target: bovine cardiac myosin (Bos taurus, UniProt Q9BE39)
Assay: Myosin activation assay (PK/LDH-coupled ATPase, bovine cardiac myofibrils)
Format: biochemical
Settings: AC20 = concentration at which total response is increased by twenty percent
Outline: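 Values are the concentrations raising the ATPase rate by 20% or 50% over DMSO, from 10-point dose responses fitted with four parameters. Rate is NADH loss at 340 nm via PK/LDH coupling, read 15 min at room temperature, in pH 6.8 PIPES with 50 μM ATP. Bovine cardiac myofibrils were held at pCa ~6 or pCa 10.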

bovine cardiac myosin, sequence (Q9BE39 whole entry): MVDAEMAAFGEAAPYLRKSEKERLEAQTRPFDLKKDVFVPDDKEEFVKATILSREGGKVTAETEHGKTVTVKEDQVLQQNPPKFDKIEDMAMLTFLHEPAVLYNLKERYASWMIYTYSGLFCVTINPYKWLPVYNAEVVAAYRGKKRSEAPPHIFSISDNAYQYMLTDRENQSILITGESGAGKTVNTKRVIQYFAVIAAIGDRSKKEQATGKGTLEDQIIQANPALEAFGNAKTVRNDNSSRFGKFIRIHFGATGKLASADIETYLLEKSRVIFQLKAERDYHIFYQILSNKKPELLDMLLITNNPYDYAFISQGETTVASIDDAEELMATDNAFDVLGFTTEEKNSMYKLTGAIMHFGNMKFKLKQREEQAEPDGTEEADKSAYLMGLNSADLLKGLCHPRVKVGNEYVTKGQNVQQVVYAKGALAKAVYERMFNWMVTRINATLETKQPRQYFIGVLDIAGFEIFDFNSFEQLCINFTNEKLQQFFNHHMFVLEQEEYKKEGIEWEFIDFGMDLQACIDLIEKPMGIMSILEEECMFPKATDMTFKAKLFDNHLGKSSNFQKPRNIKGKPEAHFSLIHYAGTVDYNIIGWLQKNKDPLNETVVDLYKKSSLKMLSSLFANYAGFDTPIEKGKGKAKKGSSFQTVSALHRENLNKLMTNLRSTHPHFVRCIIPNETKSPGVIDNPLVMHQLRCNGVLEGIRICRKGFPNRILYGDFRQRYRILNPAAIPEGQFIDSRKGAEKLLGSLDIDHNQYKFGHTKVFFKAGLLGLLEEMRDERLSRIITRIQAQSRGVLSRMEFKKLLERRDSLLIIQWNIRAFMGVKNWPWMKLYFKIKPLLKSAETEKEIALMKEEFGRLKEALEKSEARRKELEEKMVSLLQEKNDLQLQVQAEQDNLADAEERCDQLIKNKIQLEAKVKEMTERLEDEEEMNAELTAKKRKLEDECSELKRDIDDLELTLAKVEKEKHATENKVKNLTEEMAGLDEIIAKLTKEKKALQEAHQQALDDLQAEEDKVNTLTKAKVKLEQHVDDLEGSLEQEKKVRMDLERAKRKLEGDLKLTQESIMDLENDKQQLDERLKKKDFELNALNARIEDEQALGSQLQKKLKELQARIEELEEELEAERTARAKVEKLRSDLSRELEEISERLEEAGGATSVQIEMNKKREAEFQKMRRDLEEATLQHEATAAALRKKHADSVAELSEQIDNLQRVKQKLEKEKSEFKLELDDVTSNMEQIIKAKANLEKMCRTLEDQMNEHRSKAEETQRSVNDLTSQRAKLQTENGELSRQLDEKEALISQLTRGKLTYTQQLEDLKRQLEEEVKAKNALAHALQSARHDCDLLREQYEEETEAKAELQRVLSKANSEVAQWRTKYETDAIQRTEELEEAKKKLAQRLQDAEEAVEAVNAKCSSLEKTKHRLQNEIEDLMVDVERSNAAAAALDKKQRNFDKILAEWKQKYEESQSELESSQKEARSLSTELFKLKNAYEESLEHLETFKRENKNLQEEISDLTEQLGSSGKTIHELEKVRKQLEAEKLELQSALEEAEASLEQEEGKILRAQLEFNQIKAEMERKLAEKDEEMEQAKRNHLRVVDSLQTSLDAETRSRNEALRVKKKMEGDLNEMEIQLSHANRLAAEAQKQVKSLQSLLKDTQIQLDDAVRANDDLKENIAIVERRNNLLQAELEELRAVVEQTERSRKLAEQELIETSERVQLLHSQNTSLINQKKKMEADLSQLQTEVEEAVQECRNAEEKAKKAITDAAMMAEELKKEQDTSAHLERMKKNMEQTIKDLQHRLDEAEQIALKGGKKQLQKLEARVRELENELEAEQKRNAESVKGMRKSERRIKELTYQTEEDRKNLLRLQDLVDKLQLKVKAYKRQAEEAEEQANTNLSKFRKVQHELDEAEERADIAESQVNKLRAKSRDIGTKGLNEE
bovine cardiac myosin, sequence (P85100 whole entry partner): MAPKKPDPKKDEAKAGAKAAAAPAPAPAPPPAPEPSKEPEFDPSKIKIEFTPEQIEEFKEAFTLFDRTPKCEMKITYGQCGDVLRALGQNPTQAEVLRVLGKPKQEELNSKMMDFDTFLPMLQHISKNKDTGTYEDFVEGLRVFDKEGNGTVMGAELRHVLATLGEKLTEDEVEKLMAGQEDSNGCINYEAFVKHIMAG
bovine cardiac myosin, sequence (Q3SZE5 whole entry partner): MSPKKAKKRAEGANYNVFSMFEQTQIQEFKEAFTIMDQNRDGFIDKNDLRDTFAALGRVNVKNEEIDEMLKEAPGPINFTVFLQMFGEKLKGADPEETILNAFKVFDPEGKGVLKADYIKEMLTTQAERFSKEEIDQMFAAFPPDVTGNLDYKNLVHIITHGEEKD

With `C[C@@](F)(C1CCN(C(=O)Nc2ccon2)CC1)S(=O)(=O)c1ccc(C(F)(F)F)nc1` [Compound 309, (S)-4-(1-fluoro-1-((6-(trifluoromethyl)pyridin-3-yl)sulfonyl)ethyl)-N-(isoxazol-3-yl)piperidine-1-carboxamide] as the molecule, how does the “Myosin Activation (AC20)” value read?
Its value is “+ (+ represents myosin activation value AC20 > 5 μM)”.

With `Cc1cc(NC(=O)N2CCC(C(C)(C)S(=O)(=O)c3cn(C)nc3C(F)F)CC2)cnn1` [Compound 154, 4-(2-((3-(difluoromethyl)-1-methyl-1H-pyrazol-4-yl)sulfonyl)propan-2-yl)-N-(6-methylpyridazin-4-yl)piperidine-1-carboxamide] as the molecule, how does the “Myosin Activation (AC20)” value read?
The value was “+ (+ represents myosin activation value AC20 > 5 μM)”.

For `Cc1ccc(NC(=O)N2CCC(C(C)(C)S(=O)(=O)c3cc(C(F)(F)F)nn3C)CC2)cn1` [Compound 130, 4-(2-((1-methyl-3-(trifluoromethyl)-1H-pyrazol-5-yl)sulfonyl)propan-2-yl)-N-(6-methylpyridin-3-yl)piperidine-1-carboxamide], which “Myosin Activation (AC20)” value is on record?
Its value is “++ (++ represents myosin activation value AC20 from 2 μM-5 μM)”.

`COc1c(F)cccc1S(=O)(=O)C(F)(F)C1CCN(C(=O)Nc2ccnnc2)CC1` [Compound 61, 4-(difluoro((3-fluoro-2-methoxyphenyl)sulfonyl)methyl)-N-(pyridazin-4-yl)piperidine-1-carboxamide] was tested. Which “Myosin Activation (AC20)” value did it give?
Its value is “++ (++ represents myosin activation value AC20 from 2 μM-5 μM)”.

`Cc1cc(S(=O)(=O)C(F)(F)C2CCN(C(=O)Nc3ccnnc3)CC2)n(C2CC2)n1` [Compound 90, 4-(((1-cyclopropyl-3-methyl-1H-pyrazol-5-yl)sulfonyl)difluoromethyl)-N-(pyridazin-4-yl)piperidine-1-carboxamide] was tested. Which “Myosin Activation (AC20)” value did it give?
Its value is “+ (+ represents myosin activation value AC20 > 5 μM)”.

`Cn1cc(S(=O)(=O)[C@](C)(F)C2CCN(C(=O)Nc3ccon3)CC2)c(C(F)F)n1` [Compound 21, (S)-4-(1-((3-(Difluoromethyl)-1-methyl-1H-pyrazol-4-yl)sulfonyl)-1-fluoroethyl)-N-(isoxazol-3-yl)piperidine-1-carboxamide] was tested. Which “Myosin Activation (AC20)” value did it give?
The value was “+ (+ represents myosin activation value AC20 > 5 μM)”.

How did the “Myosin Activation (AC20)” value turn out when `Cn1nccc1S(=O)(=O)C(C)(F)C1CCN(C(=O)Nc2cccnc2)CC1` (stereo not drawn) [Compound 227, 4-(1-fluoro-1-((1-methyl-1H-pyrazol-5-yl)sulfonyl)ethyl)-N-(pyridin-3-yl)piperidine-1-carboxamide] was run?
The value was “+ (+ represents myosin activation value AC20 > 5 μM)”.

With `CC(F)(C1CCN(C(=O)Nc2cnns2)CC1)S(=O)(=O)c1ccc(C(F)(F)F)cc1` (stereo not drawn) [Compound 268, 4-(1-fluoro-1-((4-(trifluoromethyl)phenyl)sulfonyl)ethyl)-N-(1,2,3-thiadiazol-5-yl)piperidine-1-carboxamide] as the molecule, how does the “Myosin Activation (AC20)” value read?
The value was “+++ (+++ represents myosin activation value AC20 < 2 μM)”.

How did the “Myosin Activation (AC20)” value turn out when `Cn1cc(S(=O)(=O)C(C)(C)C2CCN(C(=O)Nc3ccon3)CC2)c(Cl)n1` [Compound 27, 4-(2-((3-Chloro-1-methyl-1H-pyrazol-4-yl)sulfonyl)propan-2-yl)-N-(isoxazol-3-yl)piperidine-1-carboxamide] was run?
Its value is “+ (+ represents myosin activation value AC20 > 5 μM)”.

`O=C(Nc1cncs1)N1CCC(C2(S(=O)(=O)c3cccc(F)c3)CC2)CC1` [Compound 37, 4-(1-((3-fluorophenyl)sulfonyl)cyclopropyl)-N-(thiazol-5-yl)piperidine-1-carboxamide] was tested. Which “Myosin Activation (AC20)” value did it give?
Its value is “+++ (+++ represents myosin activation value AC20 < 2 μM)”.

How did the “Myosin Activation (AC20)” value turn out when `COc1ncccc1S(=O)(=O)C(C)(F)C1CCN(C(=O)Nc2ccnnc2)CC1` (stereo not drawn) [Compound 55, 4-(1-fluoro-1-((2-methoxypyridin-3-yl)sulfonyl)ethyl)-N-(pyridazin-4-yl)piperidine-1-carboxamide] was run?
The value was “++ (++ represents myosin activation value AC20 from 2 μM-5 μM)”.

For `CC(F)(C1CCN(C(=O)Nc2ccnnc2)CC1)S(=O)(=O)c1cccc(C#N)c1` (stereo not drawn) [Compound 265, 4-(1-((3-cyanophenyl)sulfonyl)-1-fluoroethyl)-N-(pyridazin-4-yl)piperidine-1-carboxamide], which “Myosin Activation (AC20)” value is on record?
Its value is “+++ (+++ represents myosin activation value AC20 < 2 μM)”.

For `Cn1nc(C(F)(F)F)cc1S(=O)(=O)[C@](C)(F)C1CCN(C(=O)Nc2ccnc(F)c2)CC1` [Compound 230, (S)-4-(1-fluoro-1-((1-methyl-3-(trifluoromethyl)-1H-pyrazol-5-yl)sulfonyl)ethyl)-N-(2-fluoropyridin-4-yl)piperidine-1-carboxamide], which “Myosin Activation (AC20)” value is on record?
The value was “+ (+ represents myosin activation value AC20 > 5 μM)”.

`CC(C)(C1CCN(C(=O)Nc2ccns2)CC1)S(=O)(=O)c1cc(F)cc(F)c1` [Compound 210, 4-(2-((3,5-difluorophenyl)sulfonyl)propan-2-yl)-N-(isothiazol-5-yl)piperidine-1-carboxamide] was tested. Which “Myosin Activation (AC20)” value did it give?
Its value is “+++ (+++ represents myosin activation value AC20 < 2 μM)”.

With `CC(C)(C1CCN(C(=O)Nc2ccnnc2)CC1)S(=O)(=O)c1ccccc1Cl` [Compound 197, 4-(2-((2-chlorophenyl)sulfonyl)propan-2-yl)-N-(pyridazin-4-yl)piperidine-1-carboxamide] as the molecule, how does the “Myosin Activation (AC20)” value read?
The value was “+++ (+++ represents myosin activation value AC20 < 2 μM)”.

`CC(F)(C1CCN(C(=O)Nc2ccnnc2)CC1)S(=O)(=O)c1ccc(OC(F)F)nc1` (stereo not drawn) [Compound 14, 4-(1-((6-(Difluoromethoxy)pyridin-3-yl)sulfonyl)-1-fluoroethyl)-N-(pyridazin-4-yl)piperidine-1-carboxamide] was tested. Which “Myosin Activation (AC20)” value did it give?
Its value is “+++ (+++ represents myosin activation value AC20 < 2 μM)”.

With `Cc1ccc(NC(=O)N2CCC(C(C)(C)S(=O)(=O)c3ccnn3C)CC2)cn1` [Compound 135, 4-(2-((1-methyl-1H-pyrazol-5-yl)sulfonyl)propan-2-yl)-N-(6-methylpyridin-3-yl)piperidine-1-carboxamide] as the molecule, how does the “Myosin Activation (AC20)” value read?
Its value is “+ (+ represents myosin activation value AC20 > 5 μM)”.

Which “Myosin Activation (AC20)” value does the source give for `CCn1nccc1S(=O)(=O)C(F)(F)C1CCN(C(=O)Nc2ccnnc2)CC1` [Compound 85, 4-(((1-ethyl-1H-pyrazol-5-yl)sulfonyl)difluoromethyl)-N-(pyridazin-4-yl)piperidine-1-carboxamide] here?
Its value is “+ (+ represents myosin activation value AC20 > 5 μM)”.

For `C[C@@](F)(C1CCN(C(=O)Nc2ccon2)CC1)S(=O)(=O)c1cccc(F)c1` [Compound 285, (S)-4-(1-fluoro-1-((3-fluorophenyl)sulfonyl)ethyl)-N-(isoxazol-3-yl)piperidine-1-carboxamide], which “Myosin Activation (AC20)” value is on record?
Its value is “+ (+ represents myosin activation value AC20 > 5 μM)”.

With `CC(F)(C1CCN(C(=O)Nc2ccnnc2)CC1)S(=O)(=O)c1ccccc1Cl` (stereo not drawn) [Compound 263, 4-(1-((2-chlorophenyl)sulfonyl)-1-fluoroethyl)-N-(pyridazin-4-yl)piperidine-1-carboxamide] as the molecule, how does the “Myosin Activation (AC20)” value read?
Its value is “+++ (+++ represents myosin activation value AC20 < 2 μM)”.

For `CC(C)(C1CCN(C(=O)Nc2cnns2)CC1)S(=O)(=O)c1ccc(C(F)(F)F)cc1` [Compound 182, N-(1,2,3-thiadiazol-5-yl)-4-(2-((4-(trifluoromethyl)phenyl)sulfonyl)propan-2-yl)piperidine-1-carboxamide], which “Myosin Activation (AC20)” value is on record?
Its value is “+++ (+++ represents myosin activation value AC20 < 2 μM)”.
